Key:
[1] = Isothermal titration calorimetry (ITC), F^− recognition; assay type: binding; conditions: for K1 (association constant) / ΔG1 / K2 (association constant, second binding process) / ΔG2: X^− = F^−, DMSO, 298 K
Experimental: (§1) Isothermal titration calorimetry (ITC) studies were conducted on a MICROCAL VP-ITC ultra-sensitive isothermal titration microcalorimeter. The VP-ITC unit, with a precise temperature control set at 25.0±0.1° C., directly measured heat evolved or absorbed in solution as a result of […] of reactant. For control, a reference cell was filled with dimethyl sulfoxide (DMSO). Titrations were run at 25° C.
(§2) Before the experiment, all the samples were degassed at 25° C. for 10 minutes us the THERMOVAC (a vacuum thermostating system). Each of 40 injections of 6 μL of a halide solution was delivered into a solution (1 mM) of reagent LS over 12 seconds by a syringe spinning at 270 rpm, with a 240 second equilibration time between injections. The instrument was controlled by MICROCAL OBSERVER software comprising a 16-bit A/D converter board for data acquisition, and a second interface board for calorimetric control. Heats of dilution were taken into account using data from control experiments, in which DMSO was injected into reagent LS in DMSO solution.
From these experiments, it has been confirmed that a 1:[…] (reagent LS:F^− anion) type of stoichiometry occurs during F^− titration. Initially, π-anion-π interaction takes place, at concentrations up to one molar equivalent of F^− ion. At concentrations greater than one equivalent of F^−, the NH proton becomes directly involved in a second binding process through hydrogen bonding, a conclusion which is supported by the ^1H NMR experiments described above. The association constants for these two processes have been determined as follows: K1=4.11 10^4 M^−1 and K2=2.69 10^4 M^−1. […]

[2] = Isothermal titration calorimetry (ITC), Cl^− recognition; assay type: binding; conditions: for K1 (association constant) / ΔG1: X^− = Cl^−, ITC, DMSO, 298 K
Experimental: as §1, §2
(§3) Using these characteristic ITC patterns, one could determine whether a given test solution contains F^− only or, alternatively, whether the test solution contains is a mixture of F^− with another halide anion.
In addition to the above species, the same experimental procedure was followed with control reagent CR.

[3] = Visual color change and UV/Visible spectroscopy during F^− titration; conditions: for visible color change during F^− titration: solvents with up to 15% H2O, orange ≦5 equiv, pink >5 equiv F^−
Source text: (§4) Unless otherwise indicated, the following procedure was used for all examples involving titration experiments. Generally, titrant solutions comprising the fluoride receptor reagents (e.g., reagents N1, SR, and LR) were maintained at a concentration of 10 μm. Titrand solutions containing fluoride anion were 30 times more concentrated (e.g., 300 μm) to minimize dilution effects during titration. Unless otherwise indicated, the solvent for all solutions was dimethyl sulfoxide (DMSO).
(§5) Several experiments were conducted to observe the visible color changes that occur when NDI-based receptor reagents N1, SR, and LR were titrated with solutions containing F^− ions. Titrations were carried out using F^− in a number of solvents, including aqueous dimethyl sulfoxide (DMSO), dimethylformamide (DMF), dimethylacetamide (DMAc), acetonitrile, acetone, and tetrahydrofuran, with each solution containing up to 15% of H2O. Otherwise, the titrations followed the standard titration procedure outlined above.
(§6) As indicated above, UV/Visible light (UV/Vis) spectra were recorded on a PerkinElmer Lambda-25 UV/Vis spectrophotometer. For each experiment, receptor N1, SR, and CR concentrations were maintained at 10 μM. Titration of the F^− ion was conducted using the standard titration procedure outlined above.

[4] = Visual color change and UV/Visible spectroscopy during titration with other anions
Source text: as §4, §5, §6
Similarly, FIG. 5, panel (c) is a representation of the data obtained when receptor reagent N1 was titrated with various other […], including Cl^−, Br^−, I^−, NO3^−, acetate anion (AcO^−), and H2PO4^−.

[5] = Isothermal titration calorimetry (ITC), Br^− recognition; assay type: binding; conditions: solution with DMSO
Experimental: as §1, §2, §3

[6] = Isothermal titration calorimetry (ITC), I^− recognition; assay type: binding; conditions: solution with DMSO
Experimental: as §1, §2, §3

[7] = Fluorescence spectroscopy during F^− titration; conditions: for selectivity for F^− over other halide ions: color and emission spectra, Cl^−, Br^−, I^− up to 30 molar equivalents, DMSO
Source text: as §4
Fluorescence spectroscopy was introduced to determine the sensitivity of NDI-based F^− ion sensors at very low concentrations. Fluorescence spectra were collected on a HORIBA JOBIN YVON FLUOROMAX-4 spectrofluorometer.

Cyclic voltammetry = assay type: physicochemical; conditions: 1 mM in 0.1 M TBAPF6/DMF, Ag/AgCl reference, 100 mV/s, room temperature
Experimental: Cyclic voltammetry (CV) was conducted on a PRINCETON APPLIED RESEARCH (PAR) VERSASTAT-3-200 potentiostat/galvanostat instrument using a standard electrochemical cell, consisting of a Pt-disk working electrode, Pt-wire counter electrode, and Ag/AgCl (3 N aq. NaCl) reference electrode. CV was recorded at 1 mM of reagent N1 in 0.1 M TBAPF6/DMF supporting electrolyte solution at room temperature at 100 mV/s scan rate (FIG. 11).

[8] = Fluoride anion sensing in toothpastes (UV/Vis); conditions: 10 μM receptor, wet DMSO
Experimental: For the detection of F^− ion in toothpastes, small samples (1 gram) of each of two toothpastes (COLGATE anticavity fluoride toothpaste and ORAJEL toddler fluoride-free toothpaste) were extracted separately in 2 mL of aqueous DMSO. The COLGATE toothpaste contained 0.24% (w/v) NaF. Each resulting suspension was filtered to obtain colorless clear solution, which were separately added to 10 μM SR solutions.
The black trace represents SR without toothpaste; the light trace, SR with anticavity adult toothpaste containing 0.24% NaF; and the medium trace, SR with F^− free toddler toothpaste.

| SMILES | K1 (association constant) [1] [M⁻¹] | ΔG1 [1] [kcal/M] | K1 (association constant) [2] [M⁻¹] | ΔG1 [2] [kcal/M] | K2 (association constant, second binding process) [1] [M⁻¹] | ΔG2 [1] [kcal/M] | selectivity for F^− over other halide ions [7] | visible color change during F^− titration [3] | other results |
| --- | --- | --- | --- | --- | --- | --- | --- | --- | --- |
| O=C(Nc1cccc(NC(=O)c2cccc(C(=O)Nc3cccc(NC(=O)c4ccncc4)c3)c2)c1)c1ccncc1 [CR, reference compound] | 259 | -3.28 | 100 | -2.71 | – | – | – | – | UV/Vis spectroscopic / colorimetric response to F^− titration ([3]; receptor 10 μM, DMSO): virtually no colorimetric response; visible color change in response to anions ([4]; any anion): did not change color in response to any anion |
| O=C(Nc1cccc(NC(=O)c2cccc(C(=O)Nc3cccc(NC(=O)c4ccc(N5C(=O)c6ccc7c8c(ccc(c68)C5=O)C(=O)N(c5ccncc5)C7=O)cc4)c3)c2)c1)c1ccc(N2C(=O)c3ccc4c5c(ccc(c35)C2=O)C(=O)N(c2ccncc2)C4=O)cc1 [LR] | 41100 | -6.29 | 319 | -3.42 | 26900 | -6.04 | excellent selectivity | immediately changed color in a distinct two-step pattern | F^− binding in presence of excess Cl^− ion ([1]; excess of Cl^−): binds F^− selectively; association constant Ka ([2]; Cl^−, solution with DMSO): 319 M⁻¹; association constant Ka [5]: 145 M⁻¹; association constant Ka [6]: 105 M⁻¹ |
| O=C1c2ccc3c4c(ccc(c24)C(=O)N1c1ccncc1)C(=O)N(c1ccncc1)C3=O [N1] | 8470 | -5.36 | 53 | -2.35 | – | – | – | immediately changed color in a distinct two-step pattern | increase of the 465 nm emission peak ([7]; receptor 10 μM in DMSO, 30 equiv. of F^−): 5.5 fold; optical response to other anions ([4]; Cl^−, Br^−, I^−, NO3^−, AcO^−, H2PO4^−, UV/Vis): did not show any optical response; E1 ½, one-electron reduction to radical anion (Cyclic voltammetry): −342 mV; E2 ½, reduction to dianion (Cyclic voltammetry): −804 mV |
| O=C(Nc1cccc(N2C(=O)c3ccc4c5c(ccc(c35)C2=O)C(=O)N(c2ccncc2)C4=O)c1)c1cccc(C(=O)Nc2cccc(N3C(=O)c4ccc5c6c(ccc(c46)C3=O)C(=O)N(c3ccncc3)C5=O)c2)n1 [SR] | 9.03e+08 | -12.20 | 1730 | -4.41 | 442000 | -7.70 | excellent selectivity | immediately changed color in a distinct two-step pattern | amplification of a new peak at 465 nm ([7]; receptor 1 nM in DMSO, F^− 30 nM, 381 nm excitation): 20 fold; color change with F^− in the presence of Cl^− ([3]; titrated with F^− in the presence of 30 molar equivalents of Cl^−): showed the characteristic two-step color change associated with F^− even in the presence of Cl^−; optical response to Cl^− alone ([4]; Cl^−, 30 molar equivalents): no optical response; response to F^− containing toothpaste solution (COLGATE, 0.24% NaF) [8]: turned light orange; response to F^−-free ORAJEL toothpaste [8]: did not change the spectrum of the receptor |

Source: patent publication US8541240B2, “Colorimetric and fluorimetric fluoride sensing” (Florida State University Research Foundation, Inc., priority 2010, dated 2013)
